How the values were obtained:
Type in all cases: functional
Pseudomonas aeruginosa [1] = experiment: Antimicrobial activity against Pseudomonas aeruginosa clinical isolates assessed as resistant isolates by agar dilution method
Pseudomonas aeruginosa [2] = experiment: Antimicrobial activity against Pseudomonas aeruginosa urine isolate 4706 containing PFGE clone A expressing beta-lactamase IMP-15 by broth microdilution method; conditions: isolate 4706, Urine
Pseudomonas aeruginosa [3] = experiment: Antimicrobial activity against Pseudomonas aeruginosa blood isolate 4667 containing PFGE clone A expressing beta-lactamase IMP-15 by broth microdilution method
Pseudomonas aeruginosa [4] = experiment: Antimicrobial activity against Pseudomonas aeruginosa pleural fluid isolate 4679 containing PFGE clone A1 expressing beta-lactamase IMP-15 by broth microdilution method
Pseudomonas aeruginosa [5] = experiment: Antimicrobial activity against Pseudomonas aeruginosa blood isolate 4677 containing PFGE clone A expressing beta-lactamase IMP-15 by broth microdilution method
Pseudomonas aeruginosa [6] = experiment: Antimicrobial activity against Pseudomonas aeruginosa urine isolate 4698 containing PFGE clone A expressing beta-lactamase IMP-15 by broth microdilution method; conditions: isolate 4698, Urine
Pseudomonas aeruginosa [7] = experiment: Antimicrobial activity against Pseudomonas aeruginosa blood isolate 4659 containing PFGE clone A2 expressing beta-lactamase IMP-15 by broth microdilution method
Pseudomonas aeruginosa [8] = experiment: Antimicrobial activity against Pseudomonas aeruginosa catheter isolate 4680 containing PFGE clone A2 expressing beta-lactamase IMP-15 by broth microdilution method
Pseudomonas aeruginosa [9] = experiment: Antimicrobial activity against Pseudomonas aeruginosa secretion isolate 4658 containing PFGE clone A1 expressing beta-lactamase IMP-15 by broth microdilution method
Pseudomonas aeruginosa [10] = experiment: Antimicrobial activity against Pseudomonas aeruginosa secretion isolate 4703 containing PFGE clone A1 expressing beta-lactamase IMP-15 by broth microdilution method
Pseudomonas aeruginosa [11] = experiment: Antimicrobial activity against Pseudomonas aeruginosa secretion isolate 4682-1 containing PFGE clone A expressing beta-lactamase IMP-15 by broth microdilution method
Pseudomonas aeruginosa [12] = experiment: Antimicrobial activity against Pseudomonas aeruginosa urine isolate 4663 expressing beta-lactamase IMP-15 by broth microdilution method; conditions: isolate 4663, Urine
Pseudomonas aeruginosa [13] = experiment: Antimicrobial activity against Pseudomonas aeruginosa secretion isolate 4688 containing PFGE clone A1 expressing beta-lactamase IMP-15 by broth microdilution method
Pseudomonas aeruginosa [14] = experiment: Antimicrobial activity against Pseudomonas aeruginosa catheter isolate 4696 containing PFGE clone A expressing beta-lactamase IMP-15 by broth microdilution method

NCC[C@H](O)C(=O)N[C@@H]1C[C@H](N)[C@@H](O[C@H]2O[C@H](CN)[C@@H](O)[C@H](O)[C@H]2O)[C@H](O)[C@H]1O[C@H]1O[C@H](CO)[C@@H](O)[C@H](N)[C@H]1O [AMIKACIN]
4 µg/mL: MIC (Pseudomonas aeruginosa [12])
64 µg/mL: MIC (Pseudomonas aeruginosa [2])
> 128 µg/mL: MIC (Pseudomonas aeruginosa [3]) | MIC (Pseudomonas aeruginosa [4]) | MIC (Pseudomonas aeruginosa [5]) | MIC (Pseudomonas aeruginosa [6]) | MIC (Pseudomonas aeruginosa [7]) | MIC (Pseudomonas aeruginosa [8]) | MIC (Pseudomonas aeruginosa [9]) | MIC (Pseudomonas aeruginosa [11]) | MIC (Pseudomonas aeruginosa [13]) | MIC (Pseudomonas aeruginosa [14])
51%: Activity (Pseudomonas aeruginosa [1])
128 µg/mL: MIC (Pseudomonas aeruginosa [10])

C[C@H]1[C@H](NC(=O)/C(=N\OC(C)(C)C(=O)O)c2csc(N)n2)C(=O)N1S(=O)(=O)O [AZTREONAM]
8 µg/mL: MIC (Pseudomonas aeruginosa [12])

CC(C)(O/N=C(\C(=O)N[C@@H]1C(=O)N2C(C(=O)[O-])=C(C[n+]3ccccc3)CS[C@H]12)c1csc(N)n1)C(=O)O [CEFTAZIDIME]
> 128 µg/mL: MIC (Pseudomonas aeruginosa [2]) | MIC (Pseudomonas aeruginosa [3]) | MIC (Pseudomonas aeruginosa [4]) | MIC (Pseudomonas aeruginosa [5]) | MIC (Pseudomonas aeruginosa [6]) | MIC (Pseudomonas aeruginosa [7]) | MIC (Pseudomonas aeruginosa [8]) | MIC (Pseudomonas aeruginosa [9]) | MIC (Pseudomonas aeruginosa [10]) | MIC (Pseudomonas aeruginosa [11]) | MIC (Pseudomonas aeruginosa [12]) | MIC (Pseudomonas aeruginosa [13]) | MIC (Pseudomonas aeruginosa [14])
61%: Activity (Pseudomonas aeruginosa [1])

— ChEMBL document CHEMBL1275456, “Metallo-beta-lactamase gene bla(IMP-15) in a class 1 integron, In95, from Pseudomonas aeruginosa clinical isolates from a hospital in Mexico” (2008)
